Data on twelve compounds can be found in patent US10689354B2, “Aminoazole derivative” (Teijin Pharma Limited, priority 2015, dated 2020).

One experiment concerns the target T1, human androgen receptor (Homo sapiens, UniProt P10275).
T1 construct: expressed in transfected cells; host or cells: HEK293
T1 sequence (P10275 1-920): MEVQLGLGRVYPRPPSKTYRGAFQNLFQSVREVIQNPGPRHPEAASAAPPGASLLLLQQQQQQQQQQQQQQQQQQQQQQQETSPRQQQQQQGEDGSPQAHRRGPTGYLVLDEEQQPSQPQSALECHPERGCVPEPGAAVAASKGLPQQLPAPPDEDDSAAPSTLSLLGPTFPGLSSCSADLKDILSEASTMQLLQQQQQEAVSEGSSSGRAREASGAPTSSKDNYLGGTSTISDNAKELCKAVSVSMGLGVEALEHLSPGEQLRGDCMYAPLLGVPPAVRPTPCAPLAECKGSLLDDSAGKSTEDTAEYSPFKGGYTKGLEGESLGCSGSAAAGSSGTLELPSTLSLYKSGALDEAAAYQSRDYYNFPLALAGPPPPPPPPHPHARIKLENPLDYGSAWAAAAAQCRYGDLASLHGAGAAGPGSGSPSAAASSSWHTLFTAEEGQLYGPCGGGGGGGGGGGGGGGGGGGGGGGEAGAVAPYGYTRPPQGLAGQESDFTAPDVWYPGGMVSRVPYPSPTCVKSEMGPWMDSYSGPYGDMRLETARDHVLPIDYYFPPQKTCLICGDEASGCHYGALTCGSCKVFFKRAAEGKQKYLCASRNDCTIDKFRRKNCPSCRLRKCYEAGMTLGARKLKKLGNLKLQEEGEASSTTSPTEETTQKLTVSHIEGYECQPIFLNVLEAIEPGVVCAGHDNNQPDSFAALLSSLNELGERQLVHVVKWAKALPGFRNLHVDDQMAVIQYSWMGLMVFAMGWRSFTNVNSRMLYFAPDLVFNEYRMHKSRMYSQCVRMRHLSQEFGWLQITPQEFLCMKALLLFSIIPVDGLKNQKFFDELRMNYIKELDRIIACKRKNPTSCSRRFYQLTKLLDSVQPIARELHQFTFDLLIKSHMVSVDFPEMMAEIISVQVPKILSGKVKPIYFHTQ
Put plainly: Reporter assay of an androgen receptor responsive sequence (luciferase, transiently transfected HEK293 cells). The format is cell-based. The note with it: 24 hours incubation, relative to activity of 100 nM DHT, read-out: AR transcriptive activity (pEC50) (converted). The method in brief: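 HEK293 cells transiently transfected for 3 h with ARE-firefly luciferase, full-length human AR and TK-Renilla plasmids, then exposed to compound for 24 h at 37 °C in 5% charcoal-treated FBS/DMEM. Dual-Glo luminescence read; pEC50 from 4-parameter fit relative to 100 nM DHT.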
(In general: A reporter such as luciferase makes a cellular process visible.)

Experiment [1] has as its target T2, androgen receptor (AR-LBD) (Rattus norvegicus, UniProt P15207).
T2 construct: 5 μL of 2×AR-LBD/Fluoromone AL Red Complex contained in the kit; purchased Invitrogen
T2 sequence (P15207 651-882 limits assumed): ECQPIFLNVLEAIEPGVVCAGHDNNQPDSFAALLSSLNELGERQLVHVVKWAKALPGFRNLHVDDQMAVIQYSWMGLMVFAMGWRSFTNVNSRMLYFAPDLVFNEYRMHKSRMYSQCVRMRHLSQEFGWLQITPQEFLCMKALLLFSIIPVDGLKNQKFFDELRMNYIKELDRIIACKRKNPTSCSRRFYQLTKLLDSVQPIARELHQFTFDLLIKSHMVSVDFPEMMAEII
Put plainly: Evaluation of androgen receptor affinity (PolarScreen Androgen Receptor Competitor Assay Kit, Red; fluorescence polarization). Particulars: 22° C. for 5 hours, relative to binding rate of 1 μM DHT, read-out: AR affinity (pEC50) (converted). The method in brief:
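Fluorescence polarization read-out after 5 h at 22° C of compound with a red-fluorophore-labelled AR-LBD complex. Displacement is scaled against 1 μM DHT, and the log reciprocal of the concentration reaching half that effect gives pEC50 via four-parameter curve fitting.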
On the technique in general: Polarisation of emitted light reports the rotation of a fluorescent probe.

In the case of `Cc1sc(N(Cc2ccc(F)c(F)c2)c2ccc(C#N)cc2)nc1C(=O)NS(C)(=O)=O` [Compound 97, 2-[4-cyano-N-[(3,4-difluorophenyl)methyl]anilino]-5-methyl-N-methylsulfonyl-thiazole-4-carboxamide], the EC50 was 31.6 nM at human androgen receptor and 50.1 nM in experiment [1].

Consider `Cc1sc(N(Cc2cc(F)cc(Cl)c2)c2ccc(C#N)cc2)nc1C(=O)NS(C)(=O)=O` [Compound 99, 2-[N-[(3-chloro-5-fluoro-phenyl)methyl]-4-cyano-anilino]-5-methyl-N-methylsulfonyl-thiazole-4-carboxamide], for which the EC50 on human androgen receptor was 126 nM; in experiment [1], 63.1 nM.

As to `Cc1sc(N(Cc2ccc(Cl)c(Cl)c2)c2ccc(C#N)cc2)nc1C(=O)NS(C)(=O)=O` [Compound 100, 2-[4-cyano-N-[(3,4-dichlorophenyl)methyl]anilino]-5-methyl-N-methylsulfonyl-thiazole-4-carboxamide], the EC50 at human androgen receptor was 15.8 nM; in experiment [1], 31.6 nM.

As to `Cc1sc(N(Cc2cccc(F)c2F)c2ccc(C#N)cc2)nc1C(=O)NS(C)(=O)=O` [Compound 102, 2-[4-cyano-N-[(2,3-difluorophenyl)methyl]anilino]-5-methyl-N-methylsulfonyl-thiazole-4-carboxamide], the EC50 was 50.1 nM at human androgen receptor and 79.4 nM in experiment [1].

Regarding `Cc1sc(N(Cc2cc(F)ccc2F)c2ccc(C#N)cc2)nc1C(=O)NS(C)(=O)=O` [Compound 103, 2-[4-cyano-N-[(2,5-difluorophenyl)methyl]anilino]-5-methyl-N-methylsulfonyl-thiazole-4-carboxamide], the EC50 is 316 nM at human androgen receptor and 158 nM in experiment [1].

As for `Cc1sc(N(Cc2ccc(F)cc2F)c2ccc(C#N)cc2)nc1C(=O)NS(C)(=O)=O` [Compound 104, 2-[4-cyano-N-[(2,4-difluorophenyl)methyl]anilino]-5-methyl-N-methylsulfonyl-thiazole-4-carboxamide], the values for the EC50 (on human androgen receptor; in experiment [1]) were 126 nM and 50.1 nM, respectively.

On to `COc1ccc(F)cc1CN(c1ccc(C#N)cc1)c1nc(C(=O)NS(C)(=O)=O)c(C)s1` [Compound 105, 2-[4-cyano-N-[(5-fluoro-2-methoxy-phenyl)methyl]anilino]-5-methyl-N-methylsulfonyl-thiazole-4-carboxamide], for which the values for the EC50 (at human androgen receptor; in experiment [1]) were 316 nM and 126 nM, respectively.

With `Cc1sc(N(Cc2ccc(F)cc2Cl)c2ccc(C#N)cc2)nc1C(=O)NS(C)(=O)=O` [Compound 106, 2-[N-[(2-chloro-4-fluoro-phenyl)methyl]-4-cyano-anilino]-5-methyl-N-methylsulfonyl-thiazole-4-carboxamide], the EC50 at human androgen receptor was 316 nM; in experiment [1], 79.4 nM.

With `Cc1sc(N(Cc2cccc(Cl)c2F)c2ccc(C#N)cc2)nc1C(=O)NS(C)(=O)=O` [Compound 107, 2-[N-[(3-chloro-2-fluoro-phenyl)methyl]-4-cyano-anilino]-5-methyl-N-methylsulfonyl-thiazole-4-carboxamide], the EC50 on human androgen receptor is 31.6 nM; in experiment [1] it was 50.1 nM.

With `Cc1sc(N(Cc2cc(F)ccc2Cl)c2ccc(C#N)cc2)nc1C(=O)NS(C)(=O)=O` [Compound 108, 2-[N-[(2-chloro-5-fluoro-phenyl)methyl]-4-cyano-anilino]-5-methyl-N-methylsulfonyl-thiazole-4-carboxamide], the EC50 is 501 nM at human androgen receptor and 100 nM in experiment [1].

With `Cc1sc(N(Cc2cc(F)cc(F)c2F)c2ccc(C#N)cc2)nc1C(=O)NS(C)(=O)=O` [Compound 109, 2-[4-cyano-N-[(2,3,5-trifluorophenyl)methyl]anilino]-5-methyl-N-methylsulfonyl-thiazole-4-carboxamide], the values for the EC50 (at human androgen receptor; in experiment [1]) were 200 nM and 100 nM, respectively.

In the case of `Cc1sc(N(Cc2cc(F)c(F)cc2F)c2ccc(C#N)cc2)nc1C(=O)NS(C)(=O)=O` [Compound 110, 2-[4-cyano-N-[(2,4,5-trifluorophenyl)methyl]anilino]-5-methyl-N-methylsulfonyl-thiazole-4-carboxamide], the EC50 at human androgen receptor is 126 nM; in experiment [1], 63.1 nM.
